What was measured:
[1] = molecular target: T1, MC4-R (Homo sapiens, UniProt P32245); experiment: cAMP functional activity assay in HEK-293 cells, normal system; assay type: cell-based; parameters: expressed in transfected cells; host or cells: HEK-293; details: for intrinsic activity at MC4-R in a normal system / EC50: normal receptor density system; for intrinsic activity at MC4-R in a normal system: NDP-α-MSH = 1.0; for functional status at MC4-R in cAMP assay: normal system, 1 μM concentration where stated
Procedure: General method for EC50 determination in functional activity assay. […] Data analysis and EC50 values were determined using nonlinear regression analysis with Prism Graph-Pad software.
Functional status. The agonist/antagonist status with respect to MC1-R, MC-3R, MC4-R and MC5-R of certain compounds of the invention was determined. Antagonistic activity was determined by measuring the inhibition of α-MSH-induced or NDP-α-MSH-induced cAMP levels following exposure to graded doses of compounds as in the preceding descriptions.
Assay for agonist. Evaluation of the molecules to elicit a functional response in HEK-293 cells expressing MC4-R was accomplished by measuring the accumulation of intracellular cAMP following treatment. Confluent HEK-293 cells expressing MC4-R receptors were detached by enzyme free cell suspension buffer. […] The cells were plated in a 96 well plates at a density of 0.5×10^5 cells per well and pre-incubated for 30 minutes. Test compounds (dissolved in dimethylsulfoxide (DMSO) at a concentration range of 0.05-5000 nM) were added in a total assay volume of 200 μL and cells were incubated for 1 hour at 37° C. The concentration of DMSO was always held at 1% in the assay mixture. NDP-α-MSH was used as the reference agonist. […] Data analysis and EC50 values were determined by using nonlinear regression analysis with Prism Graph-Pad software. […] Compounds with a response ratio of less than 0.1 (10%) were evaluated for antagonistic activity.

[2] = molecular target: T1, MC4-R; experiment: Competitive inhibition assay using [I^125]-NDP-α-MSH, hMC4-R membranes; assay type: binding; parameters: host or cells: TREx-293 (HEK-293 stably expressing Tet repressor); details: for inhibition at 1 µM: 1 μM test compound, read-out: Inhibition at 1 μM (NDP-α-MSH) In Normal System, MC4-R; for Ki: read-out: Ki (nM) (NDP-α-MSH) In Normal System, MC4-R
Procedure: (§1) The ligand concentration used was 0.4 nM for MC3-R and MC5-R, 0.2 nM for MC4-R and 0.1 nM for B16-F10 (MC1-R) membranes. In certain experiments, hMC1-R was also employed.
(§2) The assay mixture was incubated for 90 minutes at room temperature, then filtered and the membranes washed three times with ice cold buffer. The filter was dried and counted in a gamma counter for remaining radioactivity bound to the membranes. […] Each assay was conducted in triplicate and the actual mean values are described, with results less than 0% reported as 0%.

[3] = molecular target: MC5-R (Homo sapiens, UniProt P33032); experiment: Competitive inhibition assay using [I^125]-NDP-α-MSH, hMC5-R membranes; assay type: binding; parameters: expressed in transfected cells; details: for inhibition at 1 µM: 1 μM test compound, read-out: Inhibition at 1 μM (NDP-α-MSH) In Normal System, MC5-R; for Ki: read-out: Ki (nM) (NDP-α-MSH) In Normal System, MC5-R
Procedure: as §1, §2

[4] = molecular target: T2, MC1-R (Mus musculus, UniProt Q01727); experiment: Competitive inhibition assay using [I^125]-NDP-α-MSH, B-16 mouse melanoma cell membranes; assay type: binding; details: for inhibition at 1 µM: 1 μM test compound, read-out: Inhibition at 1 μM (NDP-α-MSH) In Normal System, MC1-R; for Ki: read-out: Ki (nM) (NDP-α-MSH) In Normal System, MC1-R
T2 construct: B-16 mouse melanoma cells (containing MC1-R); endogenous in cells
Procedure: as §1, §2

[5] = molecular target: MC3-R (Homo sapiens, UniProt P41968); experiment: Competitive inhibition assay using [I^125]-NDP-α-MSH, hMC3-R membranes; assay type: binding; parameters: expressed in transfected cells; details: for inhibition at 1 µM: 1 μM test compound, read-out: Inhibition at 1 μM (NDP-α-MSH) In Normal System, MC3-R; for Ki: read-out: Ki (nM) (NDP-α-MSH) In Normal System, MC3-R
Procedure: as §1, §2

[6] = molecular target: T1, MC4-R; experiment: cAMP agonist stimulation, low receptor density system (0.1 ng/mL doxycycline); details: 0.1 ng/mL doxycycline, low receptor density hMC4-R system; NDP-α-MSH maximal cAMP = 1.0
[7] = ICV food intake and body weight change; assay type: in vivo; details: rat, 1 nmol, 24 hours
Procedure: ICV food intake and body weight change. Change in food intake and body weight was evaluated for selected compounds. Rats with indwelling intracerebroventricular cannulas (ICV rats) were obtained from Hilltop Lab Animals, Inc. (Scottdale, Pa.). Animals were individually housed in conventional plexiglass hanging cages and maintained on a controlled 12 hour on/off light cycle. Water and powdered (LabDiet, 5P00 Prolab RMH 3000) or pelleted (Harlan Teklad 2018 18% Protein Rodent Diet) food was provided ad libitum. For 1 week before treatment, 24-hour food intake and body weight change was recorded to assess a baseline for the group during vehicle treatment. The rats were dosed ICV with vehicle or selected compounds (1-3 nmol). The changes in body weight and food intake for the 24 hour period after dosing were determined. The changes in body weight and food intake for the 48 hour and 72 hour periods after dosing were also measured to determine reversal of changes in body weight and food intake effects back to baseline levels.

[8] = molecular target: T1, MC4-R; experiment: cAMP agonist stimulation, high receptor density system (10 ng/mL doxycycline); details: for Efficacy/Intrinsic Activity: NDP-α-MSH maximal cAMP = 1.0
[9] = Penile erection induction in male rats; assay type: in vivo; details: rat, IV; for penile erection response: 1 μg/kg
Procedure: Penile erection induction. The ability of compounds to induce penile erection (PE) in male rats was evaluated with selected compounds. Male Sprague-Dawley rats weighing 200-250 g were kept on a 12 hour on/off light cycle with food and water ad libitum. All behavioral studies were performed between 10 A.M. and 5 P.M. Groups of 4-8 rats were treated with compounds at a variety of doses via intravenous (IV) or intracerebroventricular (ICV) routes. Immediately after treatment, rats were placed into individual polystyrene cages (27 cm long, 16 cm wide, and 25 cm high) for behavioral observation. […] Controls utilized carrier without the test compound. Mean PEs in control groups were 0.17 to 0.5 PEs/rat by IV administration in various experiments and between 1-2 PEs/rat by ICV administration in various experiments, and thus only PEs with statistically relevant increases over the mean PEs in control groups are reported as inducing PEs. A PE response in IV animals greater than the mean PEs in control groups but less than 1.0 PEs/rat, particularly with less than all animals responding, was treated as equivocal, and not necessarily distinguishable from vehicle control. In selected instances, compounds with equivocal results in the IV model were tested for penile response in an ICV model, and compounds without a statistically relevant increase over the mean PEs in ICV control groups were determined to not induce PEs.

[10] = IP (and IN) food intake, mice; assay type: in vivo; details: mouse, IP, 10 mg/kg, 4 hours; read-out: maximal decrease in food intake
Procedure: IV and IP food intake and body weight change. Change in food intake and body weight was evaluated for selected compounds. Male Sprague-Dawley rats or male C57BL/6 mice were utilized. Animals were individually housed in conventional plexiglass hanging cages and maintained on a controlled 12 hour on/off light cycle. Water and powdered (LabDiet, 5P00 Prolab RMH 3000) or pelleted (Harlan Teklad 2018 18% Protein Rodent Diet) food was provided ad libitum. For 1 week before treatment, 24-hour food intake and body weight change was recorded to assess a baseline for the group during vehicle treatment. The rats were dosed IV with vehicle or selected compounds (0.5-3 mg/kg, and in some cases up to 10 mg/Kg) or dosed intraperitoneally (IP) with vehicle or selected compounds (0.5-10 mg/kg, and in some cases up to 50 mg/kg). Mice were dosed IP. […] The changes in body weight and food intake for the 48 hour and 72 hour periods after dosing were also measured to determined reversal of changes in body weight and food intake effects back to baseline levels.

[11] = 10 ng/mL doxycycline, high receptor density hMC4-R system

T2 sequence (Q01727 whole entry): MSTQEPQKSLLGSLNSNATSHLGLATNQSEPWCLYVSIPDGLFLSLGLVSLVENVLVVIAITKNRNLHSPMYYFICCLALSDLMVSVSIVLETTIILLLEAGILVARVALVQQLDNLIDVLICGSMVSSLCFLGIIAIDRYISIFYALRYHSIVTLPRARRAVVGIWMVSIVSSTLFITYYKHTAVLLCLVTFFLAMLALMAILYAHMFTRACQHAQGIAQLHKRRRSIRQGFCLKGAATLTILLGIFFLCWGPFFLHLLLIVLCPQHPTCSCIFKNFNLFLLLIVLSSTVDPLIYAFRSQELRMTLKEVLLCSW
Chain of MC3-R (P41968 whole entry): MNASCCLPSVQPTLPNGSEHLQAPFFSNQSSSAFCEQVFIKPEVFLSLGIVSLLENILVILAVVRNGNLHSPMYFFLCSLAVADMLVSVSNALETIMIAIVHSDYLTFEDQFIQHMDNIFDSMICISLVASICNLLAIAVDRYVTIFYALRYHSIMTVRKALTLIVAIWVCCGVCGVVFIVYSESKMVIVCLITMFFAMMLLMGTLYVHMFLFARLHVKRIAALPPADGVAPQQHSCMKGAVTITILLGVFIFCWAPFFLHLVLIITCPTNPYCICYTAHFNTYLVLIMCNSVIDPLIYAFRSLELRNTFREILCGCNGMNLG
Chain of MC5-R (P33032 whole entry): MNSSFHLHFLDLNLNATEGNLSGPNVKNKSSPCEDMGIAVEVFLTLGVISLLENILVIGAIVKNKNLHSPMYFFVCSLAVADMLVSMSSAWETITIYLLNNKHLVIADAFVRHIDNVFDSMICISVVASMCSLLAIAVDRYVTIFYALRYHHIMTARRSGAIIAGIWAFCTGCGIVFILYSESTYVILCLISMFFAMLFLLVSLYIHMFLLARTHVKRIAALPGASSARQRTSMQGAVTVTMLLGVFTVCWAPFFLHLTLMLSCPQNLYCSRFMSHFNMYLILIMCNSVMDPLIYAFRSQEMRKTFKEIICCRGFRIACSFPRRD
T1 sequence (P32245 whole entry): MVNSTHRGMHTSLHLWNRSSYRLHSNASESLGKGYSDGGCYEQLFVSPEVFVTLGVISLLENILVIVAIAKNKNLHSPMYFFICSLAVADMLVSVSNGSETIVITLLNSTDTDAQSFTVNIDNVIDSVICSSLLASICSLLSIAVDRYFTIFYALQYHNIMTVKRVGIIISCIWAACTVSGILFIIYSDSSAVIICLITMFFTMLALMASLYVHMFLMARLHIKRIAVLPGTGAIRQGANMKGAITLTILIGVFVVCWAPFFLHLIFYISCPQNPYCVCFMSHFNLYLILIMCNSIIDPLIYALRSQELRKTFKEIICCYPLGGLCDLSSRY

Row | Molecule | intrinsic activity at MC4-R in a normal system [1] | functional status at MC4-R in cAMP assay [1] | inhibition at 1 µM [2] | Ki [2] | inhibition at 1 µM [3] | Ki [3] | inhibition at 1 µM [4] | Ki [4] | inhibition at 1 µM [5] | Efficacy/Intrinsic Activity [6] | decrease in body weight [7] | decrease in food intake [7] | EC50 [8] | Efficacy/Intrinsic Activity [8, 11] | Penile Erection IV [9] | penile erection response [9] | EC50 [1] | Ki [5] | inhibition in vivo at 10 mg/kg [10] | EC50 [8, 11]
1 | NCCCC[C@H]1C(=O)N(CCc2ccc3ccccc3c2)CCN1C(=O)[C@@H](Cc1ccc(Cl)cc1Cl)NC(=O)[C@@H]1CC[C@H](c2ccccc2)N1 [Example 18, (2S,5R)-5-phenyl-pyrrolidine-2-carboxylic acid [(R)-2-[(S)-2-(4-amino-butyl)-4-(2-naphthalen-2-yl-ethyl)-3-oxo-piperazin-1-yl]-1-(2,4-dichloro-benzyl)-2-oxo-ethyl]-amide] | 0.2 | partial agonist (intrinsic activity between 0.1 (10%) and 0.7 (70%) is classified as a partial agonist) | 92% | 50 nM | 51% | 789 nM | 0% | 1370 nM | 18% | None | 2% | 31% | 281 nM | 0.29 |  |  |  |  |  | 
2 | NCCCC[C@H]1C(=O)N(CCc2ccc3ccccc3c2)CCN1C(=O)[C@@H](Cc1ccc(Cl)cc1Cl)NC(=O)c1ccc(Oc2ccccc2)cc1 [Example 21, N—[(R)-2-[(S)-2-(4-Amino-butyl)-4-(2-naphthalen-2-yl-ethyl)-3-oxo-piperazin-1-yl]-1-(2,4-dichloro-benzyl)-2-oxo-ethyl]-4-phenoxy-benzamide] |  | no intrinsic activity (intrinsic activity below 0.1 (10%) is classified as inactive or having no intrinsic activity) | 99% |  | 51% |  | 35% |  | 51% | None | 1% | 2% |  | None | No | no penile erection response |  |  |  | 
3 | CC(=O)N[C@H](Cc1ccc2ccccc2c1)C(=O)N1C[C@@H](C)N(C(=O)Cc2ccc3ccccc3c2)C[C@@H]1CCCNC(=N)N [Example 32, N-{(R)-2-[(2S,5R)-2-(3-guanidino-propyl)-5-methyl-4-(2-naphthalen-2-yl-acetyl)-piperazin-1-yl]-1-naphthalen-2-ylmethyl-2-oxo-ethyl}-acetamide] |  |  | 97% | 7 nM | 44% | 826 nM | 51% | 406 nM | 38% |  |  |  |  |  |  |  | 7 nM | 634 nM | 34% | 
4 | C[C@@H]1CN(C(=O)[C@H](N)Cc2ccc3ccccc3c2)[C@@H](CCCNC(=N)N)CN1C(=O)Cc1ccc2ccccc2c1 [Example 33, N-{3-[(2S)-1-[(R)-2-Amino-3-(naphthlene-2-yl)-propionyl]-5(R)-methyl-4-(2-naphthalen-2-yl-acetyl)-piperazin-2-yl]-propyl}-guanidine] |  |  | 89% | 19 nM | 50% | 548 nM | 43% | 227 nM | 40% |  |  |  | 50 nM |  |  |  | 42 nM | 596 nM | 25% | 
5 | (E)-N—[(R)-2-[(S)-2-(4-Amino-butyl)-4-(2-naphthalen-2-yl-ethyl)-3-oxo-piperazin-1-yl]-1-(2,4-dichloro-benzyl)-2-oxo-ethyl]-3-phenyl-acrylamide [Example 20] | 0.2 | partial agonist (intrinsic activity between 0.1 (10%) and 0.7 (70%) is classified as a partial agonist) |  | 6 nM |  | 398 nM |  | 502 nM |  | None | 3% | 4% |  | 0.38 | No | no penile erection response | 112 nM | 648 nM |  | 215 nM

— patent US20090081197A1 (Palatin Technologies, Inc., priority 2007, published 2009)
